Measured values: patent US11980689B2 (AVALYN PHARMA INC., priority 2013, dated 2024)
“Also recorded” adds a separate entry of the source.

What was measured:
[1] = test system: p110-γ and p110-δ; details: cited from earlier work
[2] = molecular target: mTOR (Homo sapiens, UniProt P42345); details: cited from earlier work
[3] = chelation of iron(III); assay type: physicochemical
[4] = chelation of magnesium; assay type: physicochemical
[5] = molecular target: epidermal growth factor (EGF) receptor intracellular domain (Homo sapiens, UniProt P00533); details: purified enzymes; cited from earlier work
[6] = molecular target: VEGF-R1 (Homo sapiens, UniProt P17948); details: purified enzymes; cited from earlier work
[7] = molecular target: VEGF-R2 (Homo sapiens, UniProt P35968); details: purified enzymes; cited from earlier work
[8] = in vivo
[9] = molecular target: fibroblast growth factor receptor 1 (FGF-R1) (Homo sapiens, UniProt P11362); details: purified enzymes; cited from earlier work
[10] = molecular target: TIE-2 [TEK] (Homo sapiens, UniProt Q02763); details: purified enzymes; cited from earlier work
[11] = molecular target: c-MET (Homo sapiens, UniProt P08581); details: purified enzymes; cited from earlier work
[12] = molecular target: KIT receptor; details: cited from earlier work
[13] = test system: committed progenitor cells from patients with CML; details: cited from earlier work
[14] = test system: KIT with mutations affecting the activation loop; details: cited from earlier work
[15] = molecular target: PDGFR-α (Homo sapiens, UniProt P16234); details: cellular studies; cited from earlier work
[16] = molecular target: PDGFR-β (Homo sapiens, UniProt P09619); details: cellular studies; cited from earlier work
[17] = molecular target: T1, TEL-PDGFRβ (Homo sapiens, UniProt P09619); details: mouse, in vivo; cited from earlier work
T1 construct: host or cells: transgenic mice; the other entry of the earlier key: ETV6 (P41212, Transcription factor ETV6)

[18] = test system: bleomycin-induced pulmonary fibrosis; details: cited from earlier work
[19] = test system: radiation-induced lung fibrosis; details: mouse, in vivo; cited from earlier work
[20] = test system: liver fibrosis; details: cited from earlier work
[21] = test system: heavy metal challenge; details: oral; cited from earlier work
[22] = test system: kidney fibrosis following diabetic challenge; details: oral; cited from earlier work
[23] = test system: renal fibrosis; details: rat, in vivo; cited from earlier work
[24] = Sprague-Dawley, rat, in vivo, po, 5.6 mg/kg
[25] = test system: doxorubicin-induced toxicity (heart and kidney); details: mortality, abdominal fluid, cardiac and renal lesions; cited from earlier work
[26] = test system: cardiac fibrosis; details: rat, in vivo; cited from earlier work
[27] = test system: fibrosis; details: rat, in vivo; cited from earlier work
[28] = test system: dimethylnitrosamine-induced hepatic fibrosis; details: cited from earlier work
[29] = test system: Hepatitis C viral-related liver disease; details: oral; cited from earlier work
[30] = in vivo; details: Sprague-Dawley, rat
[31] = test system: A10 rat aorta smooth muscle cells; details: cited from earlier work
[32] = test system: CML; details: cited from earlier work
[33] = test system: KIT with mutations in the juxtamembrane domain-coding region; details: cited from earlier work
[34] = test system: Alpha-1 glycoprotein (AGP); details: cited from earlier work
[35] = molecular target: kit in H526 cells (Homo sapiens, UniProt P10721); details: pretreatment of H526 cells; cited from earlier work
[36] = molecular target: c-kit (Homo sapiens, UniProt P10721); details: kinase activity at 5 μM; cited from earlier work
[37] = test system: IPF; details: cited from earlier work
[38] = single- and repeat-dosing; cited from earlier work
[39] = test system: breast cancer stem cells; details: mouse, in vivo; cited from earlier work
[40] = molecular target: p110a (Homo sapiens, UniProt P42336); details: cited from earlier work
[41] = test system: PI3K; details: cited from earlier work
[42] = test system: lung cancer; details: cited from earlier work
[43] = molecular target: JAK2V617F (Homo sapiens, UniProt O60674, V617F); details: cited from earlier work
[44] = molecular target: CYP3A4 (Homo sapiens, UniProt P08684); details: cited from earlier work

T1 sequence (P09619 554-1106 limits assumed): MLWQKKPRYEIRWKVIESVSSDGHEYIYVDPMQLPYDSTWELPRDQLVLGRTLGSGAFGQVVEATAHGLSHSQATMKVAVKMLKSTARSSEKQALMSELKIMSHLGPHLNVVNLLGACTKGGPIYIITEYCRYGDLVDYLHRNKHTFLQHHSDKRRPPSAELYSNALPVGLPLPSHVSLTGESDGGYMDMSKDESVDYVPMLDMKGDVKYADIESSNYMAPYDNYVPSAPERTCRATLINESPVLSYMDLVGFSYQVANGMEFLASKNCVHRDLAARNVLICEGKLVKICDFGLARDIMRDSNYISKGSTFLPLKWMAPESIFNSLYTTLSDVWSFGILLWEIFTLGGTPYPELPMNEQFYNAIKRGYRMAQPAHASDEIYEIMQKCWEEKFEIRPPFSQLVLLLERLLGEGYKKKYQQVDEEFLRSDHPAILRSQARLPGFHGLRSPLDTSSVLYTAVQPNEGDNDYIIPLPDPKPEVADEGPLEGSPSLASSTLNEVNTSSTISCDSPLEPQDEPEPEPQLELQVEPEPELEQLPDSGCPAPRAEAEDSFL
Sequence of PDGFR-α (P16234 24-1089, species assumed): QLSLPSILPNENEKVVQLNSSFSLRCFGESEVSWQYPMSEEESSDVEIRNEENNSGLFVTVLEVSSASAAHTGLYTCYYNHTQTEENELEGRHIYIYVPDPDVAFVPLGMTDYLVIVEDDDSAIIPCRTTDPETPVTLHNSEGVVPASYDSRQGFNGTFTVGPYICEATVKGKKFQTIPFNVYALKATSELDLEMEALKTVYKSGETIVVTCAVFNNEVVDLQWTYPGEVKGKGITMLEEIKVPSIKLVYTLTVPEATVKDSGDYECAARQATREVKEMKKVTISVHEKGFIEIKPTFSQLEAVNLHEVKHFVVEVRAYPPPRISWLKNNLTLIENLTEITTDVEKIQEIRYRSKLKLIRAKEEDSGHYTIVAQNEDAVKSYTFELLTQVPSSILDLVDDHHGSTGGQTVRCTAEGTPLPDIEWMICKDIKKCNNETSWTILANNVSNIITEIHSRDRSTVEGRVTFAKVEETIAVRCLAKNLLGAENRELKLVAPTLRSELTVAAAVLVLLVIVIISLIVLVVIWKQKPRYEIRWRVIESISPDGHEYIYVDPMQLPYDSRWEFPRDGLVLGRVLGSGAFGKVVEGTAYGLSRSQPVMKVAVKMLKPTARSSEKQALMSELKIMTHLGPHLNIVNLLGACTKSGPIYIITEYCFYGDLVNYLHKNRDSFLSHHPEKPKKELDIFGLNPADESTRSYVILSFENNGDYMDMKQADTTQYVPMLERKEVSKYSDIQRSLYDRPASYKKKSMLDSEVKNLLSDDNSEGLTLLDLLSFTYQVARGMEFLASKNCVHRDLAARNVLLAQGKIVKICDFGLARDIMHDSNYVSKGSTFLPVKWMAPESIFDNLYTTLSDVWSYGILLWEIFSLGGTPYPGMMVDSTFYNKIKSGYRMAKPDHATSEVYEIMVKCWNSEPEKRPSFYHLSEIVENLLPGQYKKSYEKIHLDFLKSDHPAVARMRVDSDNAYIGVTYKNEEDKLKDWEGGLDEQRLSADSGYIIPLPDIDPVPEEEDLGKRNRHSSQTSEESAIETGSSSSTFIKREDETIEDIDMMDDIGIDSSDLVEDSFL
Sequence of TIE-2 [TEK] (Q02763 23-1124): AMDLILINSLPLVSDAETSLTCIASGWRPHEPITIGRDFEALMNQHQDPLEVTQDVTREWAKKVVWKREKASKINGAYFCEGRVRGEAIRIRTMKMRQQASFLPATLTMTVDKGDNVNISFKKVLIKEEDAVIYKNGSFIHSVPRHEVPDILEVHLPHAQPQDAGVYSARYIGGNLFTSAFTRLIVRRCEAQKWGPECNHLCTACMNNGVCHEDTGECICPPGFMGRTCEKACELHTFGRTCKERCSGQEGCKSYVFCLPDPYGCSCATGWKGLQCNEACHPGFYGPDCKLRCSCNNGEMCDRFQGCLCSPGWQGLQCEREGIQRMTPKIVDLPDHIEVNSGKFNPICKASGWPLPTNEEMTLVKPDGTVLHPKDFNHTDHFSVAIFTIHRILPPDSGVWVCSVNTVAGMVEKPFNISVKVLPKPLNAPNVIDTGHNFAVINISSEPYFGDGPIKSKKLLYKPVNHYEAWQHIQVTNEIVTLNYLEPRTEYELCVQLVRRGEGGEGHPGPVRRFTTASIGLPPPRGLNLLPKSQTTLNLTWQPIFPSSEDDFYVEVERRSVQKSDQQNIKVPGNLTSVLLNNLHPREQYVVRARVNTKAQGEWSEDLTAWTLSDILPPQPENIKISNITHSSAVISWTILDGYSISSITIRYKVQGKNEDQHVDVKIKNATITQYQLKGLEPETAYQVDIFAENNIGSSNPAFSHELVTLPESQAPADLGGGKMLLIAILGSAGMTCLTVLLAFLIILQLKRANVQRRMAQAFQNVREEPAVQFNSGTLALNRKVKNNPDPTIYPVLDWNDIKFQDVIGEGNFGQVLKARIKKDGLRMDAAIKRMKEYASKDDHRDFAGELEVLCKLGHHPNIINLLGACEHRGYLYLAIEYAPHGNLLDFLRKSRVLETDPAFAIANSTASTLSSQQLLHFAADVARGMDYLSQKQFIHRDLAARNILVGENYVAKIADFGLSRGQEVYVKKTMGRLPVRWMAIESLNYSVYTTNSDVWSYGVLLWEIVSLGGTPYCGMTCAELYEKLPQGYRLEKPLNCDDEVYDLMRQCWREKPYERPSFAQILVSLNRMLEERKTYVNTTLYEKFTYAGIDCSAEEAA
Sequence of VEGF-R1 (P17948 27-1338, species assumed): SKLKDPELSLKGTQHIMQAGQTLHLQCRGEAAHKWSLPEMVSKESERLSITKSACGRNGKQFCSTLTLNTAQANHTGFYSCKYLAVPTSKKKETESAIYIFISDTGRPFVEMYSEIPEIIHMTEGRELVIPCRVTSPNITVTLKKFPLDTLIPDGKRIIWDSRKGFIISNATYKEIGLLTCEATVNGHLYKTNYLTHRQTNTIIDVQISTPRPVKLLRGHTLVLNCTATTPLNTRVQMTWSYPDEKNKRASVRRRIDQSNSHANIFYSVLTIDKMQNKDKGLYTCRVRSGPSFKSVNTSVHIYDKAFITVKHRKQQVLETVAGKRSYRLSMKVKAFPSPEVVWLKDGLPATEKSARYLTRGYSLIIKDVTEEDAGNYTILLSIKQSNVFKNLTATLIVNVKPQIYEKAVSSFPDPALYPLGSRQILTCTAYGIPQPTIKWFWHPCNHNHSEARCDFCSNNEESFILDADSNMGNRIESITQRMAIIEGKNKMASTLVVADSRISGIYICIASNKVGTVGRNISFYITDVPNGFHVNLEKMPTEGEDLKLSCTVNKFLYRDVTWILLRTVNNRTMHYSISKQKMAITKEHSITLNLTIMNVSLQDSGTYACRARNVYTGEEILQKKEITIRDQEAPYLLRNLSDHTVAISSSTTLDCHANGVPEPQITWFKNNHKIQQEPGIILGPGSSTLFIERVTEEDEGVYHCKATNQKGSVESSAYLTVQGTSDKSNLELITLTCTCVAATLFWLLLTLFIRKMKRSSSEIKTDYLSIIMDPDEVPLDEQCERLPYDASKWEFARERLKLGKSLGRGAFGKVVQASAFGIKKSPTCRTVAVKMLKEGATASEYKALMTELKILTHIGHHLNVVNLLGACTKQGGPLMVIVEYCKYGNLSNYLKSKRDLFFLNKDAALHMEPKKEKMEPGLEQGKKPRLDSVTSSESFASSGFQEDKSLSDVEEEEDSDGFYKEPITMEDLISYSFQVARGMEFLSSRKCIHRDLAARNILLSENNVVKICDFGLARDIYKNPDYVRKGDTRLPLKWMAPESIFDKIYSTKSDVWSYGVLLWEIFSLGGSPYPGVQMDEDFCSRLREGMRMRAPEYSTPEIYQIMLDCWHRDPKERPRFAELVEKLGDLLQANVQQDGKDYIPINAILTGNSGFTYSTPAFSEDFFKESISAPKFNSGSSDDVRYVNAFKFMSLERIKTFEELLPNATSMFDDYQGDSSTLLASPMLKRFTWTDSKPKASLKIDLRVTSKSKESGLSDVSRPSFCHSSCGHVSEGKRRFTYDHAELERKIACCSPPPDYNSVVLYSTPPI
Sequence of kit in H526 cells (P10721 26-976): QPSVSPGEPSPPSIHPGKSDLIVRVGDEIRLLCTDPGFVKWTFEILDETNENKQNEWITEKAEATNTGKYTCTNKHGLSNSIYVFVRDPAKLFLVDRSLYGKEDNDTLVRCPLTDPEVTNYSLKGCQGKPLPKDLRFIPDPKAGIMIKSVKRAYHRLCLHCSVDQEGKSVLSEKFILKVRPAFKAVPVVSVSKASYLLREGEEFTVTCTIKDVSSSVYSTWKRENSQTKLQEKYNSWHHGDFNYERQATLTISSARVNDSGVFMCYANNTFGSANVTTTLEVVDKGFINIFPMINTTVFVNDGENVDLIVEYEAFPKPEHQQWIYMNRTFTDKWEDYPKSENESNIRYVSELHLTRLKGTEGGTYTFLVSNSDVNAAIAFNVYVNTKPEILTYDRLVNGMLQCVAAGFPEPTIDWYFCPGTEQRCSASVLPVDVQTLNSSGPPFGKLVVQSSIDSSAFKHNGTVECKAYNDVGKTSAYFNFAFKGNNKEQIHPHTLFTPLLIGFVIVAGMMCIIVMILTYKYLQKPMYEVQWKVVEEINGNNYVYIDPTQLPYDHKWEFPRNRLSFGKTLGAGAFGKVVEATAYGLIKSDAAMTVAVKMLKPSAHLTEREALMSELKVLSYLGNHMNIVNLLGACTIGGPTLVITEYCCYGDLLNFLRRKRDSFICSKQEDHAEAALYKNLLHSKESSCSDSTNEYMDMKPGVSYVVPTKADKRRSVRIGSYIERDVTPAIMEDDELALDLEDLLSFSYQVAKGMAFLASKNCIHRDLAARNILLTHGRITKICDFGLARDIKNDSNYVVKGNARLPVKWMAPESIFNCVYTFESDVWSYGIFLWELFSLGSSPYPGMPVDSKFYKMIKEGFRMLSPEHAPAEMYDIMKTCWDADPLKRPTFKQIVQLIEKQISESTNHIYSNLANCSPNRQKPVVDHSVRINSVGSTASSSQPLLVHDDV
Sequence of c-kit (P10721 26-976): as above

## Nc1nc(N)c2nc(-c3cccc(O)c3)c(-c3cccc(O)c3)nc2n1 [TG100-115]
[1]
  better potency than against the other isoforms: 5-10 fold

## Cc1c(CN2CCN(S(C)(=O)=O)CC2)sc2c(N3CCOCC3)nc(-c3cnc(N)nc3)nc12 [GNE-477]
[2]
  IC50: 21 nM

## Cc1ccc(NC(=O)c2ccc(CN3CCN(C)CC3)cc2)cc1Nc1nccc(-c2cccnc2)n1 [imatinib, 4-[(4-methylpiperazin-1-yl)methyl]-N-(4-methyl-3-{[4-(pyridin-3-yl)pyrimidin-2-yl]amino}phenyl)benzamide]
[3]
  imatinib molecules per iron(III) ion: three
[4]
  imatinib molecules to one magnesium ion: two
[5]
  inhibition of EGF receptor intracellular domain: did not inhibit
[6]
  inhibition of kinase activity: weak or no inhibition
[7]
  inhibition of kinase activity: weak or no inhibition
[8]
  lung-surface cations: depletion of essential lung-surface cations
[9]
  inhibition of kinase activity: weak or no inhibition
[10]
  inhibition of kinase activity: weak or no inhibition
[11]
  inhibition of kinase activity: weak or no inhibition
[12]; cell line from a GIST patient with an activating Kit mutation
  KIT autophosphorylation: suppress
[12]; upon binding of stem-cell factor (SCF)
  autophosphorylation of the KIT receptor: potently inhibited; also recorded: blocks
[13]
  colony formation: selective inhibition
[14]
  sensitivity of KIT mutants: resistant
[15]
  receptor inhibition: potent inhibition
[16]
  receptor inhibition: potent inhibition
[17]
  survival of the animals: prolonged survival
  tumor formation: inhibited tumor formation
[18]; Days 0 to 15
  development of pulmonary fibrosis, early treatment: significantly prevented
[18]; Days 15 to 28
  development of pulmonary fibrosis, late treatment: did not
[18]; mouse, in vivo
  development of pulmonary fibrosis: inhibited the development of pulmonary fibrosis
[19]
  effect on lung fibrosis: antifibrotic effects
[20]; Days 0 to 21
  inhibition of liver fibrosis, early treatment: effective
[20]; Days 22 to 35
  inhibition of liver fibrosis, late treatment: not late
[21]
  effect against heavy metal challenge: protective effect
[22]
  effect on fibrosis following diabetic challenge: fibrosis reversal
[23]
  action in renal fibrosis: antifibrotic action
[24]
  Lung AUC: 64.1 mg·h/kg
  Lung Cmax: 13.0 µg/g
[25]
  severity of doxorubicin-induced toxicity: reduced the severity
[26]
  fibrosis: reversed and prevented fibrosis
[27]
  fibrosis: reversal of fibrosis
[28]; in vivo
  mRNA for type I collagen and transforming growth factor-beta in the liver: suppressed
[28]; oral
  effect against hepatic fibrosis: protective effect
  hepatic hydroxyproline levels: reduced
[29]
  fibrosis and quality of life: decreased fibrosis and improved quality of life
[30]; inhaled or intranasal, 1 mg/kg
  AUC: 40 ng·h/mL
  Cmax: 20 ng/mL
[30]; po, 5.6 mg/kg
  AUC: 4900 ng·h/mL
  Cmax: 1100 ng/mL
[31]
  serum-induced growth: did not affect
[32]; chronic-phase CML, doses of 300 mg or higher
  patients achieving a complete haematological response: 98%
[32]; oral 25 to 1,000 mg per day
  maximal tolerated dose: no maximal tolerated dose was identified
[33]
  inhibition of KIT kinase activity: effective
[34]
  binding by AGP: high affinity
[35]
  SCF-mediated kit activation: inhibited
[36]
  tyrosine phosphorylation and in vitro kinase activity of c-kit: dose-dependent inhibition
[37]; DICO, change in PVC, 6-minute walk test
  secondary outcome parameters: no benefit
[37]; dose reduction 600 mg to 400 mg daily allowed
  incidence of AE-related drop-outs: 22%
[37]; in vivo
  primary outcome, time to disease progression: no benefit

## O=C1NC(=O)/C(=C/c2ccc3nccc(-c4ccncc4)c3c2)S1 [GSK1059615]
[38]
  exposure: lack of sufficient exposure

## CC[C@@H](C(=O)[C@@H](C)[C@@H](O)[C@H](C)[C@@H]1O[C@@H]([C@@H](CC)C(=O)O)CC[C@@H]1C)[C@H]1O[C@]2(C=C[C@@H](O)[C@]3(CC[C@@](C)([C@H]4CC[C@](O)(CC)[C@H](C)O4)O3)O2)[C@H](C)C[C@@H]1C [Salinomycin]
[39]
  effectiveness relative to paclitaxel: at least 100 times

## FC(F)c1nc2ccccc2n1-c1nc(N2CCOCC2)nc(N2CCOCC2)n1 [ZSTK474]
[40]
  inhibition: potent inhibitor

## C#Cc1cccc(Nc2ncnc3cc(OCCOC)c(OCCOC)cc23)c1 [Erlotinib]
[42]; EGFR mutation positive patients
  response rate: approximately 60%
[42]; human, in vivo
  time to resistance from the start of treatment: 8-12 months
[43]
  inhibition of JAK2V617F activity: potent inhibitor
[44]
  metabolism: mainly metabolized
